# Read-outs that look alike come from different tables or passages of the source.
# Key:
# rabbits = experiment: In vivo neuromuscular block and cardiovascular side effects, rabbit (Example 8, Table 7); settings: for ED50: intravenous dose causing 50% neuromuscular block; for RI (recovery index): spontaneous recovery, 25-75% neuromuscular response; for Onset: time to 80-85% neuromuscular block
# anesthetized monkeys = experiment: In vivo neuromuscular block and cardiovascular side effects, monkey (Example 8, Table 6); settings: for ED50: intravenous dose causing 50% neuromuscular block; for RI (recovery index): spontaneous recovery, 25-75% neuromuscular response; for Onset: time to 80-85% neuromuscular block
# Excerpt: Both electromyographic and mechanomyographic responses can be quantified.
# The techniques described under a) and b) were employed in other species as needed with the modification that juvenile pigs were initially anesthetized with inhalation of halothane (Table 5) and monkeys were initially sedated with intramuscular ketamine injections prior to inducing and maintaining general anesthesia using pentobarbital and propofol administered intravenously (Table 6).
# [1] = test system: anesthetized cats (evoked responses of anterior tibial muscle); experiment: animal or person; settings: for RI (recovery index): spontaneous recovery, 25-75% neuromuscular response; for Onset: time to 80-85% neuromuscular block
# Excerpt: a) Adult, male albino rats were anesthetized with pentobarbital injected intraperitoneally. The trachea was cannulated for artificial respiration via a small animal respirator. The carotid artery was cannulated for recording blood pressure via a transducer and heart rate by a cardiotachograph on a polygraph. One external jugular vein was cannulated for i.v. drug administration. Neuromuscular function was monitored by electromyography, recording evoked responses from the anterior tibial muscle as a result of supramaximal nerve stimuli consisting of single or “train-of-four” rectangular pulses of 0.1-0.2 msec duration every 10-12 seconds, delivered to the sciatic or common peroneal nerve by a laboratory nerve stimulator. Another mode of stimulation included repeated single stimuli delivered at 0.1 Hz or 1 Hz. […] The agents were dissolved in physiologic saline and injected intravenously at appropriate time intervals. The intensity, onset, and duration of neuromuscular block and its type were determined with each agent. Through administering several doses, the doses corresponding to 50%, 80% and 90% neuromuscular block were determined. All agents were compared with selected standard neuromuscular blocking compounds, e.g. succinylcholine, pancuronium, mivacurium, or rocuronium.
# Onset=time in minutes to 80-85% neuromuscular block.
# RI=recovery index, minutes, spontaneous recovery, 25-75% neuromuscular response.
# VB=vagal block, %, at 80-85% neuromuscular blocking dose.
# ΔHR=change in heart rate, %, at 80-85% neuromuscular blocking dose.
# ΔBP=change in arterial blood pressure, %, at 80-85% neuromuscular blocking dose.
# b) Adult cats were anesthetized with a mixture of 70 mg/kg alpha chloralose and 0.5 g/kg ethylurethane intraperitoneally. One thigh was fixed in a vertical position by means of a pin at the lower end of the femur. Needle electrodes were placed on the sciatic or the common peroneal nerve. A tendon of the anterior tibial muscle was attached to a force transducer and the muscle responses evoked, as described under a), were recorded. Both electromyographic and mechanomyographic responses can be quantified. Blood pressure and heart rate changes were recorded from appropriately cannulated arteries via a blood pressure transducer and cardiotachograph.
# [2] = test system: anesthetized juvenile pigs; experiment: animal or person; type: in vivo; settings: pig; for ED50: intravenous dose causing 50% neuromuscular block; for VB (vagal block) / ΔBP (change in arterial blood pressure) / ΔH (change in heart rate): in vivo; for RI (recovery index): spontaneous recovery, 25-75% neuromuscular response; for Onset: time to 80-85% neuromuscular block
# Procedure, shortened: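 Electromyographic and mechanomyographic responses quantified. Monkeys sedated with intramuscular ketamine, then general anesthesia with intravenous pentobarbital and propofol; juvenile pigs induced with inhaled halothane.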
# [3] = test system: anesthetized rats (evoked responses of anterior tibial muscle); experiment: In vivo neuromuscular block and cardiovascular side effects, anesthetized rat (Example 8, Table 3); settings: for Onset: time to 80-85% neuromuscular block
# Procedure, shortened: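 Pentobarbital-anesthetized (i.p.), ventilated adult male rats given saline-dissolved agents i.v.; anterior tibial EMG responses to supramaximal single or train-of-four sciatic/peroneal stimuli, plus 0.1 or 1 Hz stimulation. Doses for 50%, 80%, 90% block derived. Onset: minutes to 80-85% block; RI: 25-75% spontaneous recovery; vagal block, heart rate and blood pressure changes (%) at 80-85% blocking dose.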
# [4] = Oryctolagus cuniculus, read-out: ED50
# [5] = cat, intravenous dose causing 50% neuromuscular block
# [6] = rat, intravenous dose causing 50% neuromuscular block
# [7] = rat, spontaneous recovery, 25-75% neuromuscular response
# [8] = rat, at 80-85% neuromuscular blocking dose
# [9] = at 80-85% neuromuscular blocking dose
SMILES,ED50 (rabbits; [4]),ΔBP (change in arterial blood pressure) (rabbits; in vivo),ΔH (change in heart rate) (rabbits; in vivo),RI (recovery index) (rabbits),Onset (rabbits),"ED50 (anesthetized monkeys; Primates, read-out: ED50)",ΔBP (change in arterial blood pressure) (anesthetized monkeys; in vivo),ΔH (change in heart rate) (anesthetized monkeys; in vivo),RI (recovery index) (anesthetized monkeys),Onset (anesthetized monkeys),"ΔBP (change in arterial blood pressure) ([1]; cat, in vivo)","ΔH (change in heart rate) ([1]; cat, in vivo)","ED50 [1, 5]",RI (recovery index) ([1]; cat),Onset ([1]; cat),VB (vagal block) [2],ΔBP (change in arterial blood pressure) [2],ΔH (change in heart rate) [2],RI (recovery index) [2],Onset ([3]; rat),further results
"COc1cc2c(cc1OC)[C@@H](Cc1cc(OC)c(OC)c(OC)c1)[N+](C)(CCCOC(=O)CC/C=C/CCC(=O)OCCC[N+]1(C)CCc3cc(OC)c(OC)cc3[C@H]1Cc1cc(OC)c(OC)c(OC)c1)CC2 (stereo partly shown) [Mivacurium, reference compound]",0.02 mg/kg,0%,0%,3.9 min,2.8 min,0.034 mg/kg,0%,0%,2.4 min,1.9 min,0%,0%,0.025 mg/kg,5 min,3.5 min,17%,0%,0%,3.6 min,1.8 min,"ED50 ([2]; Sus scrofa, read-out: ED50): 0.135 mg/kg; Onset [2]: 1.5 min; VB (vagal block) ([3]; male, rat, in vivo): 0%; ΔBP (change in arterial blood pressure) ([3]; male, rat, in vivo): 0%; ΔH (change in heart rate) ([3]; male, rat, in vivo): 0%; ED50 [3, 6]: 0.14 mg/kg; RI (recovery index) [3, 7]: 3.9 min"
"CC(=O)Oc1ccc(C[N+]2(C)C3CCC2CC(OC(=O)C2C4C=CC(C4)C2C(=O)OC2CC4CCC(C2)[N+]4(C)Cc2ccc(OC(C)=O)c(OC(C)=O)c2)C3)cc1OC(C)=O.[Br-].[Br-] (stereo not drawn) [bis[N-(3,4-diacetoxybenzyl)tropanium-3α-yl]trans-3,6-endomet] [bis[N-(3,4-diacetoxybenzyl)tropanium-3α-yl]trans-3,6-endomethylene-1,2,3,6-tetrahydrophthalate dibromide]",,0%,0%,0.7 min,0.8 min,,0%,0%,0.65 min,0.8 min,,,0.12 mg/kg,0.5 min,0.9 min,42%,0%,0%,0.9 min,0.65 min,"ED50 (rabbits): 0.096 mg/kg; ED50 (anesthetized monkeys): 0.06 mg/kg; VB (vagal block) ([1]; in vivo): 30%; ΔBP (change in arterial blood pressure) ([1]; in vivo): −30%; ΔH (change in heart rate) ([1]; in vivo): −12%; ED50 [2]: 0.197 mg/kg; Onset [2]: 0.65 min; VB (vagal block) [3, 8]: 32%; ΔBP (change in arterial blood pressure) [3, 8]: 0%; ΔH (change in heart rate) [3, 8]: 0%; ED50 [3, 6]: 0.084 mg/kg; RI (recovery index) [3, 7]: 0.5 min"
"COc1ccc(CC2c3cc(OC)c(OC)cc3CC[N+]2(C)CCC(=O)OCCCCCOC(=O)CC[N+]2(C)CCc3cc(OC)c(OC)cc3C2Cc2ccc(OC)c(OC)c2)cc1OC (stereo not shown) [Atracurium, reference compound]",0.03 mg/kg,,,5.7 min,2.7 min,0.186 mg/kg,,,7.5 min,3 min,0%,0%,,4.8 min,2.7 min,,,,,1.5 min,"ΔBP (change in arterial blood pressure) (rabbits; [9]): 0%; ΔH (change in heart rate) (rabbits; [9]): 0%; ΔBP (change in arterial blood pressure) (anesthetized monkeys; [9]): 0%; ΔH (change in heart rate) (anesthetized monkeys; [9]): 0%; ED50 ([1]; Felis catus, iv): 0.068 mg/kg; ED50 ([3]; Rattus norvegicus, iv): 0.32 mg/kg; VB (vagal block) ([3]; male, rat, in vivo): 0%; ΔBP (change in arterial blood pressure) ([3]; male, rat, in vivo): 0%; ΔH (change in heart rate) ([3]; male, rat, in vivo): 0%; RI (recovery index) ([3]; rat, in vivo): 2.9 min"
